Measurements reported in ChEMBL document CHEMBL1129269, “1-aryl-4-[(1-tetralinyl)alkyl]piperazines: alkylamido and alkylamino derivatives. Synthesis, 5-HT1A receptor affinity, and selectivity. 3” (J Med Chem, 1996).

What was measured:
[1] = target: T1, Adrenergic receptor alpha-1 (Rattus norvegicus, UniProt P15823+P23944+P43140); assay: Binding affinity against Alpha-1 adrenergic receptor in rat brain membrane using [3H]prazosin as radioligand; assay type: cell membranes
T1 sequence (P15823 whole entry): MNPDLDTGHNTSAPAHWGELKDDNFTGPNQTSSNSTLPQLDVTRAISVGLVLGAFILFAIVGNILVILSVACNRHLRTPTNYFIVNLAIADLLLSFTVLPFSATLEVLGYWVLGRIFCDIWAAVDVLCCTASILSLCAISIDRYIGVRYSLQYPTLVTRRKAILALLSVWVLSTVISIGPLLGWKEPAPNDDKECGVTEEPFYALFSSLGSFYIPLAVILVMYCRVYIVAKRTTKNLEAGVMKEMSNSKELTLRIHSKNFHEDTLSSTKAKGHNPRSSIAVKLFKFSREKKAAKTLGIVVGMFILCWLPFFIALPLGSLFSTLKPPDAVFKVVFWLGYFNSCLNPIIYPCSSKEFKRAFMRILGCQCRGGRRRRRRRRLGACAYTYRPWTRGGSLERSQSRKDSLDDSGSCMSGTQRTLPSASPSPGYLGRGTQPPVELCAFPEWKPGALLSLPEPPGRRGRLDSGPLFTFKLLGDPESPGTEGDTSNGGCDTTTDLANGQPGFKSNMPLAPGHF
T1 sequence (P23944 whole entry): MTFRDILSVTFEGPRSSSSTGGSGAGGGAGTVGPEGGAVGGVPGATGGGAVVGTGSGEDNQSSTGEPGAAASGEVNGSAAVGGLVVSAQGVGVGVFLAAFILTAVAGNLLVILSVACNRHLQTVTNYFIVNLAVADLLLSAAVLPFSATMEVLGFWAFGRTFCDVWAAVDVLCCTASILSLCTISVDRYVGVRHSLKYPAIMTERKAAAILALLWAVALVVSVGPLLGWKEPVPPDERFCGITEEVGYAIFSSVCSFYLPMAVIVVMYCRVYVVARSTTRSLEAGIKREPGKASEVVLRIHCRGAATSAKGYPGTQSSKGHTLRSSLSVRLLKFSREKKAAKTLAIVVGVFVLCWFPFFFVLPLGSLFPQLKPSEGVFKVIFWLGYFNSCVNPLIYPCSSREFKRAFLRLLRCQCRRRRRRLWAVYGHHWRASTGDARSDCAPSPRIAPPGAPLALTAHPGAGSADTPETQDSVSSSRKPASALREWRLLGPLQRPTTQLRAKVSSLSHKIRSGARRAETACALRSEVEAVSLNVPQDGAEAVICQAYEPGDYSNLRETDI
T1 sequence (P43140 whole entry): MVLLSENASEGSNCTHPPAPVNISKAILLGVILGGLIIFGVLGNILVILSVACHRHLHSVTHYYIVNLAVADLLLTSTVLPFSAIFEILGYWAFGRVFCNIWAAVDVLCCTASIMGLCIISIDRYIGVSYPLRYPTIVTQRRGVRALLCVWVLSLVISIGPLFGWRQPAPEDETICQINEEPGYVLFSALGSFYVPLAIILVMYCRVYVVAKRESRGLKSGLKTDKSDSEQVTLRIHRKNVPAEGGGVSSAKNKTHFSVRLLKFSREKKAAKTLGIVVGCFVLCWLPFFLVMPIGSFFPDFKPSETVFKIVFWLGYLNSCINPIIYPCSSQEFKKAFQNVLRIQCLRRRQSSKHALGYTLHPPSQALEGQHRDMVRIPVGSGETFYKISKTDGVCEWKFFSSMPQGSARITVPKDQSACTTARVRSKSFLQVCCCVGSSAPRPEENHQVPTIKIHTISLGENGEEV

[2] = target: D(2) dopamine receptor (Rattus norvegicus, UniProt P61169); assay: Compound was evaluated for their affinity against Dopamine receptor D2 by displacing [3H]spiperone in rat striatal membrane; assay type: cell membranes, Striatum
D(2) dopamine receptor, sequence (P61169 whole entry): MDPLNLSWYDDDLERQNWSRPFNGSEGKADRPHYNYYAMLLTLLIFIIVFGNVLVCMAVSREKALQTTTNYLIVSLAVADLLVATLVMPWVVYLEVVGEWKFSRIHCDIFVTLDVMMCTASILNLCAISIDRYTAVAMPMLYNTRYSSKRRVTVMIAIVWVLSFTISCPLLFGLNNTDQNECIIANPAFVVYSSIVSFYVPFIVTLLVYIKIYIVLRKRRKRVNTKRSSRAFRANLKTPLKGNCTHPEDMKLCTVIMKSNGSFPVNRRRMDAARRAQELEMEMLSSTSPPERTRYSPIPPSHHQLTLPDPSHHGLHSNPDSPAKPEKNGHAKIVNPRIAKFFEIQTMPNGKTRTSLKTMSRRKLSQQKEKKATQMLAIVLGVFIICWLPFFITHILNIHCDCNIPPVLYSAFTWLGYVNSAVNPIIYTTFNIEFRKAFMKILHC

[3] = target: T2, Adrenergic receptor alpha-2 (Rattus norvegicus, UniProt P22086+P19328+P22909); assay: Binding affinity against Alpha-2 adrenergic receptor in rat brain membrane using [3H]yohimbine as radioligand; assay type: cell membranes
T2 sequence (P22086 whole entry): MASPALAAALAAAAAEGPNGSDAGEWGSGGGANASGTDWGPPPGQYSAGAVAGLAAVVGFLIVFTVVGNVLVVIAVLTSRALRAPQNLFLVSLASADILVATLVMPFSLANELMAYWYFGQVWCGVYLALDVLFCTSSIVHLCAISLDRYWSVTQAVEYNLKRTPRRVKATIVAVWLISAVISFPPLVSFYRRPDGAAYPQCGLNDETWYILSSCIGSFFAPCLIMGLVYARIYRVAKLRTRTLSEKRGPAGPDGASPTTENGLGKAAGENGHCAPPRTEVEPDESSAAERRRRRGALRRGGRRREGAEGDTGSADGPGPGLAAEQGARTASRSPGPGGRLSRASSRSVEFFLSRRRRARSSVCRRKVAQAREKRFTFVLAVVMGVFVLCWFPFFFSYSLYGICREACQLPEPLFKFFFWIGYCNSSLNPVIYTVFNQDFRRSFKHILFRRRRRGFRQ
T2 sequence (P19328 whole entry): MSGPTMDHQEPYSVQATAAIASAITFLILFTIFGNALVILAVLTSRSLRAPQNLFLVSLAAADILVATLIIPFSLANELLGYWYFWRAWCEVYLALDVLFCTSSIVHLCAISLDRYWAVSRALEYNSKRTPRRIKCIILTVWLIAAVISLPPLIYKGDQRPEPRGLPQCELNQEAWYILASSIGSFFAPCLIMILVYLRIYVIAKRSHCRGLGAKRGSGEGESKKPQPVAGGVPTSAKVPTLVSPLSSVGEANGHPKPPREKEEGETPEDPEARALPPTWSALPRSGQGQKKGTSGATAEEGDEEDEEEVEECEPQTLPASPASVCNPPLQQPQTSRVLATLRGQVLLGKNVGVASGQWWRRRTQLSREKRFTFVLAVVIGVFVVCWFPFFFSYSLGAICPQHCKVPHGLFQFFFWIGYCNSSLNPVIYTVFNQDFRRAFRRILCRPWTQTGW
T2 sequence (P22909 whole entry): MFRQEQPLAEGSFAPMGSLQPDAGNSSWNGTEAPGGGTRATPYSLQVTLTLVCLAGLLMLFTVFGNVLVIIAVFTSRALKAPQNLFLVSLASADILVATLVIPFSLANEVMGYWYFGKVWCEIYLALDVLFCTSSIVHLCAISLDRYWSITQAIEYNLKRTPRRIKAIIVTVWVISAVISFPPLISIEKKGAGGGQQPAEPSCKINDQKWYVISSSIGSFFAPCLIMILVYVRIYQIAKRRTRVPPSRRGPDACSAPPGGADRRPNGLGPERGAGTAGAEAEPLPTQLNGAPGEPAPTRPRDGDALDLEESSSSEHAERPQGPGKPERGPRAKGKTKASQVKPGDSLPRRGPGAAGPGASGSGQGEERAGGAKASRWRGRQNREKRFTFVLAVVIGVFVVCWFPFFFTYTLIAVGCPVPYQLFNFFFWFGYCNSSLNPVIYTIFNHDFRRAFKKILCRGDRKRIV

[4] = target: Serotonin 2 (5-HT2) receptor (Rattus norvegicus, UniProt P30994+P08909+P14842); assay: Binding affinity against 5-hydroxytryptamine 2 receptor in rat brain using [3H]ketanserin as radioligand; assay type: tissue-based
[5] = target: T3, 5-hydroxytryptamine receptor 1A (Rattus norvegicus, UniProt P19327); assay: Binding affinity against 5-hydroxytryptamine 1A receptor in rat hippocampus membranes using [3H]8-OH-DPAT as radioligand; assay type: cell membranes, Membrane
T3 sequence (P19327 whole entry): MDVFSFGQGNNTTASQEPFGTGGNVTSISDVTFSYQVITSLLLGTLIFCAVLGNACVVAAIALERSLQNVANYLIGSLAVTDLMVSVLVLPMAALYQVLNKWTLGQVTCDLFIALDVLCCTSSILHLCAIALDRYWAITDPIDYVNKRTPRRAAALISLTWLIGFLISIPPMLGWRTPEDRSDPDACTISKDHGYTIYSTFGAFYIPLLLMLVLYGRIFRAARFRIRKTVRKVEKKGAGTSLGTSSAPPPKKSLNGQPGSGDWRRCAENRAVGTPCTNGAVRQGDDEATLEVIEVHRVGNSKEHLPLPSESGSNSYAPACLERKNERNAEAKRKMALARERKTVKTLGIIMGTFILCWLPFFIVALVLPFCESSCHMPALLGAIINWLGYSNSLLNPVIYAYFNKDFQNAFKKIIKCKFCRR

IC50 [1]: 0.22 µM
IC50 [2]: 0.38 µM
IC50 [3]: 0.28 µM
IC50 [4]: 2.58 µM
IC50 [5]: 0.0077 µM
Compound: COc1ccccc1N1CCN(CCNC2CCCc3c(OC)cccc32)CC1 (stereo not given)
